Data taken from patent publication USRE48461E1, “Modulation of androgen receptor expression” (Ionis Pharmaceuticals, Inc., priority 2012, dated 2021).
Oligonucleotides are written 5' to 3', each unit as a sugar letter and its base; * is a phosphorothioate linkage, no mark a phosphodiester; rarer units and linkages stand in square brackets, end groups in braces. Plain capitals give the bases only. e = 2'-O-(2-methoxyethyl) (MOE); k = constrained ethyl (cEt); [5mC] = 5-methylcytosine; d = 2'-deoxy (DNA)

Key:
AR mRNA [1] = assay: Dose-dependent antisense inhibition of human AR in HuVEC cells (electroporation, qRT-PCR RTS3559, IC50); type: cell-based; conditions: HuVEC
Experimental: (§1) After a treatment period of approximately 16 hours, RNA was isolated from the cells and AR mRNA levels were measured by quantitative real-time PCR. Human AR primer probe set RTS3559 was used to measure mRNA levels. AR mRNA levels were adjusted according to total RNA content, as measured by RIBOGREEN®. […] The antisense oligonucleotides were tested in a series of experiments that had similar culture conditions.
as §1, §1, §1, §1
(§2) After a treatment period of approximately 16 hours, RNA was isolated from the cells and AR mRNA levels were measured by quantitative real-time PCR. Human AR primer probe set RTS3559 was used to measure mRNA levels. AR mRNA levels were adjusted according to total RNA content, as measured by RIBOGREEN®.
as §2

AR mRNA [2] = assay: Antisense inhibition of human AR in HuVEC cells, single concentration (electroporation, qRT-PCR RTS3559); type: cell-based
Experimental: Antisense oligonucleotides were designed targeting an AR nucleic acid and were tested for their effects on AR mRNA in vitro. The antisense oligonucleotides were tested in a series of experiments that had similar culture conditions. […] Human primer probe set RTS3559 (forward sequence [NT], designated herein as SEQ ID NO: 9; reverse sequence [NT], designated herein as SEQ ID NO: 10; probe sequence [NT], designated herein as SEQ ID NO: 11) was used to measure mRNA levels. AR mRNA levels were adjusted according to total RNA content, as measured by RIBOGREEN®. […] A total of 155 oligonucleotides were tested. Additional antisense oligonucleotides were designed targeting an AR nucleic acid and were tested for their effects on AR mRNA in vitro. […] Human primer probe set RTS3559 was used to measure mRNA levels. AR mRNA levels were adjusted according to total RNA content, as measured by RIBOGREEN®. […] A total of 82 oligonucleotides were tested. Additional antisense oligonucleotides were designed targeting an AR nucleic acid and were tested for their effects on AR mRNA in vitro. […] Human primer probe set RTS3559 was used to measure mRNA levels. AR mRNA levels were adjusted according to total RNA content, as measured by RIBOGREEN®. […] A total of 40 oligonucleotides were tested. Additional antisense oligonucleotides were designed targeting an AR nucleic acid and were tested for their effects on AR mRNA in vitro. […] Human primer probe set RTS3559 was used to measure mRNA levels. AR mRNA levels were adjusted according to total RNA content, as measured by RIBOGREEN®. […] A total of 75 oligonucleotides were tested. Additional antisense oligonucleotides were designed targeting an AR nucleic acid and were tested for their effects on AR mRNA in vitro. […] Human primer probe set RTS3559 was used to measure mRNA levels. AR mRNA levels were adjusted according to total RNA content, as measured by RIBOGREEN®. […] A total of 616 oligonucleotides were tested. Additional antisense oligonucleotides were designed targeting an AR nucleic acid and were tested for their effects on AR mRNA in vitro. […] Human primer probe set RTS3559 was used to measure mRNA levels. AR mRNA levels were adjusted according to total RNA content, as measured by RIBOGREEN®. […] A total of 385 oligonucleotides were tested.

[3] = Table 29, electroporation, approximately 16 hours
[4] = Table 34, electroporation, approximately 16 hours
[5] = Table 35, electroporation, approximately 16 hours
[6] = Table 24, 1,000 nM oligonucleotide, electroporation, approximately 24 hours, relative to untreated control
[7] = Table 30, electroporation, approximately 16 hours
[8] = Table 36, electroporation, approximately 16 hours
[9] = Table 32, electroporation, approximately 16 hours

583660 (antisense kG*kA*k[5mC]*dA*d[5mC]*dA*d[5mC]*dG*dG*dT*dG*dG*dA*k[5mC]*kA*kA) [compound 583660]
percent inhibition of AR, 46.9 nM (AR mRNA [1]; [3]): 21%
percent inhibition of AR, 187.5 nM (AR mRNA [1]; [3]): 39%
percent inhibition of AR, 750.0 nM (AR mRNA [1]; [3]): 61%
percent inhibition of AR, 3000.0 nM (AR mRNA [1]; [3]): 72%
IC50 (AR mRNA [1]; [3]): 420 nM
% inhibition (AR mRNA [2]; 500 nM ASO, ~24 h, Table 17): 44%

583933 (k[5mC]*kA*kG*d[5mC]*dG*dG*dG*dT*dT*d[5mC]*dT*d[5mC]*d[5mC]*kA*kG*k[5mC]; antisense) [compound 583933]
percent inhibition of AR, 46.9 nM (AR mRNA [1]; [4]): 22%
percent inhibition of AR, 187.5 nM (AR mRNA [1]; [4]): 25%
percent inhibition of AR, 750.0 nM (AR mRNA [1]; [4]): 56%
percent inhibition of AR, 3000.0 nM (AR mRNA [1]; [4]): 81%
IC50 (AR mRNA [1]; [4]): 410 nM
% inhibition (AR mRNA [2]; Table 21, 500 nM oligonucleotide, electroporation, approximately 24 hours, relative to untreated control): 38%

584162 (kT*kG*kG*dA*dT*dT*dG*dT*dA*dA*dA*dT*dT*kA*k[5mC]*kG; antisense) [compound 584162]
percent inhibition of AR, 46.9 nM (AR mRNA [1]; [5]): 24%
percent inhibition of AR, 187.5 nM (AR mRNA [1]; [5]): 45%
percent inhibition of AR, 750.0 nM (AR mRNA [1]; [5]): 80%
percent inhibition of AR, 3000.0 nM (AR mRNA [1]; [5]): 92%
IC50 (AR mRNA [1]; [5]): 180 nM
% inhibition (AR mRNA [2]; [6]): 82%

583734 (antisense kT*k[5mC]*kA*d[5mC]*dT*dT*d[5mC]*dG*d[5mC]*dG*d[5mC]*dA*d[5mC]*kG*k[5mC]*kT) [compound 583734]
percent inhibition of AR, 46.9 nM (AR mRNA [1]; [7]): 29%
percent inhibition of AR, 187.5 nM (AR mRNA [1]; [7]): 60%
percent inhibition of AR, 750.0 nM (AR mRNA [1]; [7]): 74%
percent inhibition of AR, 3000.0 nM (AR mRNA [1]; [7]): 75%
IC50 (AR mRNA [1]; [7]): 120 nM
% inhibition (AR mRNA [2]; 500 nM ASO, ~24 h, Table 18): 46%

584180 (kG*kT*kA*dG*dA*dT*dT*d[5mC]*dT*dA*dG*d[5mC]*dT*kT*kT*kG; antisense) [compound 584180]
percent inhibition of AR, 46.9 nM (AR mRNA [1]; [5]): 26%
percent inhibition of AR, 187.5 nM (AR mRNA [1]; [5]): 56%
percent inhibition of AR, 750.0 nM (AR mRNA [1]; [5]): 84%
percent inhibition of AR, 3000.0 nM (AR mRNA [1]; [5]): 96%
IC50 (AR mRNA [1]; [5]): 120 nM
% inhibition (AR mRNA [2]; [6]): 81%

569228 (antisense eT*eT*kG*kA*kT*dT*dT*dA*dA*dT*dG*dG*kT*kT*kG*e[5mC]) [compound 569228]
percent inhibition of AR (AR mRNA [1]; 31.25 nM, ~16 h, Table 8): 26%
percent inhibition of AR (AR mRNA [1]; 62.5 nM, ~16 h, Table 8): 43%
percent inhibition of AR (AR mRNA [1]; 62.5 nM, ~16 h, Table 10): 29%
percent inhibition of AR (AR mRNA [1]; 125.0 nM, ~16 h, Table 8): 62%
percent inhibition of AR (AR mRNA [1]; 125.0 nM, ~16 h, Table 10): 44%
percent inhibition of AR (AR mRNA [1]; 500.0 nM, ~16 h, Table 8): 88%
percent inhibition of AR (AR mRNA [1]; 500.0 nM, ~16 h, Table 10): 77%
percent inhibition of AR (AR mRNA [1]; 1000.0 nM, ~16 h, Table 8): 92%
percent inhibition of AR (AR mRNA [1]; 1000.0 nM, ~16 h, Table 10): 87%
IC50 (AR mRNA [1]; ~16 h, Table 8): 90 nM
IC50 (AR mRNA [1]; ~16 h, Table 10): 158 nM
% inhibition (AR mRNA [2]; 250 nM ASO, ~24 h, Table 7): 67%

584469 (kT*kT*kT*dG*dG*dT*dA*dA*d[5mC]*dA*dT*dT*dA*kG*kG*k[5mC]; antisense) [compound 584469]
percent inhibition of AR, 46.9 nM (AR mRNA [1]; [8]): 13%
percent inhibition of AR, 187.5 nM (AR mRNA [1]; [8]): 46%
percent inhibition of AR, 750.0 nM (AR mRNA [1]; [8]): 73%
percent inhibition of AR, 3000.0 nM (AR mRNA [1]; [8]): 89%
IC50 (AR mRNA [1]; [8]): 220 nM
% inhibition (AR mRNA [2]; Table 27, 1,000 nM oligonucleotide, electroporation, approximately 24 hours, relative to untreated control): 74%
% inhibition (AR mRNA [2]; Table 28, 1,000 nM oligonucleotide, electroporation, approximately 24 hours, relative to untreated control): 63%

584128 (kA*kT*kT*d[5mC]*dT*dT*dG*dA*d[5mC]*dT*dG*dT*d[5mC]*kT*kG*kA; antisense) [compound 584128]
percent inhibition of AR, 46.9 nM (AR mRNA [1]; [4]): 20%
percent inhibition of AR, 187.5 nM (AR mRNA [1]; [4]): 22%
percent inhibition of AR, 750.0 nM (AR mRNA [1]; [4]): 41%
percent inhibition of AR, 3000.0 nM (AR mRNA [1]; [4]): 72%
IC50 (AR mRNA [1]; [4]): 740 nM
% inhibition (AR mRNA [2]; Table 23, 500 nM oligonucleotide, electroporation, approximately 24 hours, relative to untreated control): 38%

560133 (antisense kA*kT*kG*dG*dT*dT*dG*dA*dT*dT*dT*dA*kA*kT*kG*eG) [compound 560133]
percent inhibition of AR (AR mRNA [1]; 31.25 nM, ~16 h, Table 14): 17%
percent inhibition of AR (AR mRNA [1]; 62.5 nM, ~16 h, Table 14): 15%
percent inhibition of AR (AR mRNA [1]; 125.0 nM, ~16 h, Table 14): 24%
percent inhibition of AR (AR mRNA [1]; 500.0 nM, ~16 h, Table 14): 58%
percent inhibition of AR (AR mRNA [1]; 1000.0 nM, ~16 h, Table 14): 79%
IC50 (AR mRNA [1]; ~16 h, Table 14): 336 nM
% inhibition (AR mRNA [2]; 1,000 nM ASO, ~24 h, Table 13): 53%

583635 (antisense k[5mC]*kT*kG*dG*d[5mC]*dT*d[5mC]*d[5mC]*dG*d[5mC]*dA*d[5mC]*dT*k[5mC]*kG*kG) [compound 583635]
percent inhibition of AR, 46.9 nM (AR mRNA [1]; [3]): 35%
percent inhibition of AR, 187.5 nM (AR mRNA [1]; [3]): 56%
percent inhibition of AR, 750.0 nM (AR mRNA [1]; [3]): 69%
percent inhibition of AR, 3000.0 nM (AR mRNA [1]; [3]): 78%
IC50 (AR mRNA [1]; [3]): 130 nM
% inhibition (AR mRNA [2]; 500 nM ASO, ~24 h, Table 17): 50%

583836 (k[5mC]*k[5mC]*kG*dA*dA*dG*d[5mC]*dT*dG*dT*dT*d[5mC]*d[5mC]*k[5mC]*k[5mC]*kT; antisense) [compound 583836]
percent inhibition of AR, 46.9 nM (AR mRNA [1]; [9]): 11%
percent inhibition of AR, 187.5 nM (AR mRNA [1]; [9]): 27%
percent inhibition of AR, 750.0 nM (AR mRNA [1]; [9]): 67%
percent inhibition of AR, 3000.0 nM (AR mRNA [1]; [9]): 86%
IC50 (AR mRNA [1]; [9]): 390 nM
% inhibition (AR mRNA [2]; Table 20, 500 nM oligonucleotide, electroporation, approximately 24 hours, relative to untreated control): 37%

584274 (kG*kT*kT*dA*dT*d[5mC]*dT*dT*dA*d[5mC]*dT*d[5mC]*dT*k[5mC]*k[5mC]*k[5mC]; antisense) [compound 584274]
percent inhibition of AR, 46.9 nM (AR mRNA [1]; [8]): 17%
percent inhibition of AR, 187.5 nM (AR mRNA [1]; [8]): 36%
percent inhibition of AR, 750.0 nM (AR mRNA [1]; [8]): 74%
percent inhibition of AR, 3000.0 nM (AR mRNA [1]; [8]): 93%
IC50 (AR mRNA [1]; [8]): 230 nM
% inhibition (AR mRNA [2]; Table 25, 1,000 nM oligonucleotide, electroporation, approximately 24 hours, relative to untreated control): 70%
